From the METLIN SMRT retention time set (Domingo-Almenara et al. 2019)

Experiment: gradient 5% acetonitrile 3 min, to 50% in 2 min, to 85% in 15 min, held 3 min, 100 µL/min
Conditions: column: Zorbax Extend-C18 2.1 x 50 mm; eluents: water / acetonitrile, 0.1% formic acid
Method in brief: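 Standards, all pure, were combined into mixtures of ~100 molecules and run at 100 μL/min on a Zorbax Extend-C18 column (2.1 × 50 mm, 1.8 μm) with water and acetonitrile, each containing 0.1% formic acid. A coupled quadrupole time-of-flight mass spectrometer operated in positive and negative ionization mode. Retention time values come from computationally picked adduct peaks, each inspected manually.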

Row | Compound | RP-LC retention time [s]
1 | O=C1NCCCCCCN(C(=O)Nc2ccccc2)[C@H]2CCCC[C@@H]12 | 805
2 | O=C(Cc1nnc(-c2cccc(F)c2)o1)N1CCC2(CC1)OCCO2 | 698
3 | O=C(NCCCN1CCCC1)C1CCCN(c2nccnc2Sc2ccccc2)C1 (stereo not given) | 659
4 | N#Cc1cccc(C(=O)N2CCCC2c2nc(-c3cccc(C(F)(F)F)c3)no2)c1 (stereo not given) | 1050
5 | C=C(C)CN1CC[C@]23c4c5ccc(O)c4O[C@H]2c2[nH]c4ccccc4c2C[C@@]3(O)[C@H]1C5 | 647
6 | COc1cccc(-n2ccc(=O)c(-c3nc(-c4cccc(OC)c4OC)no3)n2)c1 | 826
7 | CC1CCCCN1c1cc(-n2cnc(C(=O)N3CCCCC3)c2)ncn1 (stereo not given) | 880
8 | O=c1c(NCCc2ccc(Cl)cc2)nccn1-c1ccc2c(c1)OCO2 | 870
9 | CCn1cc(C(=O)NCc2ccc(C)cc2)c2cccnc21 | 811
10 | Cc1ccc(S(=O)(=O)N2CCC(c3nc(-c4ccncc4)no3)CC2)cc1C | 983
11 | COc1ccc(C2CCCN2C(=O)c2ccnn2C)cc1 (stereo not given) | 722
12 | O=C(CCc1c(-c2ccc(Cl)cc2)nc2ccccn12)Nc1ccc(F)cc1 | 748
13 | Cn1c(CC2CCN(C(=O)c3ccccc3Cl)C2)nc2cccnc21 (stereo not given) | 572
14 | O=C(CCC1CCCN(S(=O)(=O)c2ccccc2)C1)NCC1CCCCC1 (stereo not given) | 956
15 | Cc1ccc(-c2c(C(=O)NCC3CCCO3)nc3ccccn23)cc1 (stereo not given) | 730
16 | CCn1cc(C)c(C(=O)O)c1CC(=O)N1CCN(C2CCCCC2)CC1 | 597
17 | COc1ccc(N2CCN(c3ccc4cc(S(=O)(=O)N5CCCCC5C)ccc4n3)CC2)cc1 (stereo not given) | 991
18 | O=C(Nc1ccc(Cl)cc1)N1CCc2nc[nH]c2C1 | 594
19 | COc1cccc(N2CCN(C(=O)c3[nH]c(C)c(S(=O)(=O)N4CCOCC4)c3C)CC2)c1 | 772

Row | Compound | RP-LC retention time [s]
20 | O=C1Nc2ccccc2SC1C(=O)N1CCC(C(=O)N2CC=C(c3ccccc3)CC2)CC1 (stereo not given) | 831
21 | Cc1c(Cl)cccc1Nc1c(-c2cccc(O)c2)nc2cnccn12 | 813
22 | COc1cc(-c2c(NC(=O)c3ccco3)sc3ccccc3c2=O)cc(OC)c1OC | 828
23 | c1ccc(OCc2nc(-c3ccc4c(c3)nnn4CCN3CCCCC3)no2)cc1 | 698
24 | O=C(C1CCN(c2nc3ccc(-c4ccccc4)nc3s2)CC1)N1CCCCC1 | 1040
25 | O=C1COc2ccccc2N1Cc1nc(-c2ccc(Br)cc2)no1 | 1110
26 | O=C(c1sc2ncccc2c1-n1cccc1)N1CCN(c2ccccc2Cl)CC1 | 1120
27 | CN1c2ccccc2C(=O)NC12CCN(C(=O)c1ccccc1)CC2 | 700
28 | CC(C)CNC(=O)c1c2c(nc3ccccc13)CCCC2 | 639
29 | O=C(c1ccc(F)c(Cl)c1)N1CCC(n2c(-c3ccco3)nc3cccnc32)C1 (stereo not given) | 800
30 | CC(=O)N[C@@H]1CN(C(=O)Cc2cccc3ccccc23)C[C@H]1CO | 637
31 | Cc1nnc(-c2ccc(S(=O)(=O)N3CCCCCC3)o2)o1 | 834
32 | CN1CCn2cc(S(=O)(=O)Nc3ccc(C#N)cc3)cc2C1=O | 662
33 | N#CCN(c1ccc(F)cc1)S(=O)(=O)c1ccc2nncn2c1 | 669
34 | COc1ccc(-n2nnc(C(=O)O)c2-c2ccccn2)cc1 | 654
35 | O=C(Nc1ccc(F)cc1)N1CCC(CCOc2ccncc2)CC1 | 616
36 | CN(C)c1nc(Nc2ccc(F)cc2)c2cnn(C)c2n1 | 781
37 | CCCOc1ccc(CNC(=O)C2CCN(c3cc(Oc4ccccc4)ncn3)CC2)cc1 | 988

The next lines start with the values.

Row | RP-LC retention time [s] | Compound
38 | 753 | Cc1cc2nn(CC(=O)NCc3ccccc3)c(=O)n2c(-c2ccccc2)n1
39 | 646 | O=C(Cn1c(=O)nc(-c2ccccc2)c2cc(Cl)ccc21)N1CCN(c2ccccn2)CC1
40 | 626 | CN1C(=O)c2cc(C(=O)N3CCCC3)nn2CC1(C)C(=O)NCc1ccc(F)cc1 (stereo not given)
41 | 840 | O=C(Cn1c(=O)c2cc(-c3ccco3)nn2c2ncccc21)Nc1ccc(F)cc1F
42 | 1200 | CCc1sc(NC(=O)C2CCCCC2)nc1-c1ccccc1
43 | 561 | CC(C)CNC(=O)C1CCN(c2nccn3nc(-c4cccs4)cc23)CC1
44 | 1090 | CC1CCCN(c2nn(CC(=O)Nc3ccc(F)cc3)c(=O)c3ccccc23)C1 (stereo not given)
45 | 1060 | CC1=NS(=O)(=O)N(C)C=C1C(=O)OCc1nc(-c2ccc(C(F)(F)F)cc2)no1
46 | 665 | CCNc1cc(N2CCC(CCC(=O)NCc3cccc(F)c3)CC2)ncn1
47 | 810 | CN(C)S(=O)(=O)c1ccc(C(=O)Nc2nc(-c3ccc4c(c3)NC(=O)CO4)cs2)cc1
48 | 582 | CNC(=O)[C@@H]1CN(C(=O)c2cscn2)C[C@H]1c1nc(COC)no1
49 | 928 | COc1cccc(NC(=O)c2cc(C)n3nc(C)cc3n2)c1
50 | 683 | Cc1ccc(F)cc1NC(=O)Cc1nnc(-c2cnccn2)o1
51 | 831 | COc1ccc(CCNC(=O)CN2C(=O)CSc3cccn3-c3ccccc32)cc1OC
52 | 743 | O=C(NCc1ccco1)C1CCN(c2nc3ccc(-c4cncnc4)nc3s2)CC1
53 | 608 | CCCc1cc(N2CCN(C(=O)c3ccccc3)CC2)nc2nncn12
54 | 616 | CC(=O)c1ccc(Nc2c(C(=O)OC(C)C)cnc3nc(C)ccc23)cc1
55 | 649 | CCOC(=O)c1oc2ccc(S(=O)(=O)N3CC4CN(C)CC(C3)O4)cc2c1C
56 | 590 | CCOc1cc(=O)n2c(c1C(=O)N1CCN(C3CCCCC3)CC1)CCCCC2
57 | 662 | Cc1ccc2nc(C)c(NC(=O)CSCc3ccccc3)c(=O)n2c1
58 | 584 | Cc1ccc2cc(CCC(=O)NCCCN3CCCCC3)c(=O)[nH]c2c1
59 | 845 | CCC(=O)Nc1ccc(C2(C(=O)NC(C)CC)CCCCC2)cc1 (stereo not given)
60 | 797 | CCOC(=O)CC1C(=O)NCCN1C(=O)COc1ccc(Br)cc1C (stereo not given)
61 | 633 | COc1ccc(C(=O)NCc2c(C)noc2C)cn1
62 | 731 | COc1ccc(NS(=O)(=O)c2cc(-c3[nH]ncc3C(=O)N3CCCCC3)oc2C)cc1
63 | 932 | CCOC(=O)c1c(S(=O)(=O)N2CCC(C(=O)Nc3cccc(Cl)c3)CC2)c(C)n(C)c1C
64 | 1160 | Cc1nc2c(sc3nc(-c4ccccc4)ccc32)c(=O)n1CC(=O)Nc1cccc(C(F)(F)F)c1

Row | RP-LC retention time [s] | Compound
65 | 718 | CCCNC(=O)C1CCCN(c2ccc(SCC(=O)Nc3ccc(C)c(F)c3)nn2)C1 (stereo not given)
66 | 623 | Cc1cc(N2CCN(C(=O)Cc3ccccc3Br)CC2)nc2nnc(C)n12
67 | 941 | CCOc1ccc(S(=O)(=O)N2CCC(c3nc(C(=O)N4CCCC4)c(C)o3)CC2)cc1
68 | 676 | CC(=O)c1cccc(NC(=O)CC2COc3ccccc3NC2=O)c1 (stereo not given)
69 | 694 | CCCn1c(CCNC(=O)c2c(F)cccc2F)nc2cccnc21
70 | 949 | Cc1ccc(-c2nc(C)c(C(=O)NC(C)C)s2)cc1
71 | 1100 | CCOc1ccccc1NC(=O)Nc1ccc2c(c1)CCN2S(=O)(=O)c1ccc(C)cc1
72 | 729 | O=C(Nc1nccs1)c1ccc(Cl)c(S(=O)(=O)N2CCOCC2)c1
73 | 836 | CC1=C(c2ccc(C)cc2)S(=O)(=O)N=C1N1CCCN(C(=O)NC(C)(C)C)CC1
74 | 625 | O=C(Cn1c(=O)n(-c2ccc(F)cc2)c2ncccc21)NCCN1CCCCCC1
75 | 641 | Cc1cc(=O)n(CC(=O)Nc2cc(F)ccc2F)c(N2CCCC2)n1
76 | 664 | CC1CCN(S(=O)(=O)c2ccc(-c3nnc(C(=O)NCCCN4CCOCC4)o3)cc2)CC1
77 | 701 | O=C(Nc1nnc(C2CC(=O)N(c3ccc(F)cc3)C2)o1)c1ccccc1F (stereo not given)
78 | 967 | Cc1ccc(NC(=O)NC(C)C(=O)N2CCc3ccccc32)c(Cl)c1 (stereo not given)
79 | 597 | COc1ccc(Cn2c(C)c(CNCc3cccnc3)c(C(=O)O)c2C)cc1
80 | 703 | CCC(C)C(NC(=O)c1ccsc1)C(=O)Nc1nc2ccccc2[nH]1 (stereo not given)
81 | 694 | Cc1ccc2c(=O)c(C(=O)N3CCCCC3)cn(CC(=O)NC3CCCC3)c2n1
82 | 962 | CCc1nc2sc(C(C)C)nn2c1S(=O)(=O)N1CCSCC1
83 | 799 | Cc1ccc(F)c(NC(=O)C2CC(=O)N(c3ccc4c(c3)CCN4C(=O)C3CC3)C2)c1 (stereo not given)
84 | 841 | COc1ccc(C2CCCN2C(=O)c2c(Br)cnn2C)cc1 (stereo not given)
85 | 742 | CCOC(=O)c1cnc2nc(C)ccc2c1Nc1ccc(F)cc1Cl
86 | 698 | O=C(Cc1nnc(-c2ccccc2)o1)N1CCSCC1
87 | 664 | CN(C)C(=O)c1ccc(-c2nnc3ccc(NC(=O)C4CCC4)cn23)cc1
88 | 1350 | Cc1ccc(-c2csc(-n3nc(C)c(CC(=O)Nc4ccc(Br)cc4)c3C)n2)cc1
89 | 624 | CCOC(=O)c1c(C)[nH]c(C(=O)N2CCCC(C(=O)NCCCN3CCCCCC3)C2)c1C (stereo not given)
90 | 640 | CCSc1nnc(NC(=O)CSc2nn3c(=O)c(C)nnc3s2)s1
